According to US8771680B2, “Topical co-enzyme Q10 formulations and methods of use” (University of Miami, priority 2004, dated 2014):

Columns and labels:
[1] = of cancer patients having progressive disease before treatment; cited from earlier work
[2] = test system: human neonatal keratinocytes; assay: Proliferation of neonatal keratinocytes in in vitro culture; type: cell-based; settings: 48 hour in vitro culture
Method: (§1) Retrieve Q10 stock from −20° C. storage and weigh out approximately 4.4 mg. Transfer Q10 into a 25 mL centrifuge tube. Add 1 mL 2-propanol to centrifuge tube. Vortex and dip in hot water bath (55° C.) to promote dissolution. Add 9 mL of media to centrifuge tube. Vortex and dip in hot water bath (55° C.) if necessary to create a homogenous solution. […] Make serial dilutions to treatment concentrations.
(§2) After subculture (per subculturing cells protocol described above), pipet the desired volume suspension of cells to count (0.25-1 mL) into Coulter Counter Vial (Beckman, Inc.) using an automatic pipette. Insure that the Beckman Coulter® Z1 Cell and Particle Counter is clean by using Coulter CLENZ (Beckman, Inc., Fullerton, Calif.) to flush. Flush apparatus once with Isoton II Diluent. Add Isoton II Diluent to vial containing cells for a total volume of 10 mL. Use output mode of apparatus to count cells twice to ensure accuracy. Average counts together and calculate total cell number per volume.
(§3) Acclimate reagents to 37° C. in water bath. Make stock solution of Q10 as per protocol described above for creating a homogenous solution of Q10 in media. Perform serial dilutions to desired concentrations. Place 2 mL media into respective wells. Subculture flasks as per protocol described above for subculturing cells. […]

[3] = test system: breast adenocarcinoma cell line (MCF-7); assay: Proliferation of breast adenocarcinoma cell line MCF-7 in in vitro culture; type: cell-based
Method: as §1, §2, §3

[4] = test system: human prostatic adenocarcinoma cell line (PC-3); assay: Apoptosis analysis by JC-1 stain (mitochondrial polarization, flow cytometry); type: cell-based; settings: PC-3 cells, 0.2 mM Q10, 24 h
Method: FIG. 28 is a graph showing the effect of CoQ10 on mitochondrial polarization (an indicator of apoptosis) of a human prostatic adenocarcinoma cell line (PC-3) in a 24 hour in vitro culture. PC-3 cell cultures were treated with Q10 at 0.05, 0.1 and 0.2 mM concentrations for 24 h and then treated with JC-1, at 10 microgram/ml., for 30 min. Uptake and levels of green fluorescence was measured in a flow cytometer, FL1 (green fluor.).
Apoptosis was measured using a mitochondrial membrane dye JC-1, 5,5′,6,6′-tetrachloro-1,1′,3,3′-tetraethyl-benzimidazolylcarbocyanine chloride (Molecular Probe, Eugene, Oreg.). Treatments consisting of DMEM-F12 media supplemented with 1×PSA, 5% FBS and 0, 50, 100, and 200 μM concentrations of coenzyme Q10 were prepared in 60×15 mm tissue culture dishes (Costar-Cambride, Mass.). PC-3 cells were seeded at 500,000 cells per dish and incubated for 24 hours. The cells were trypsinized using 2 mL trypsin-EDTA and subjected to centrifugation at 2,500 rpm for 8 minutes. They were resuspended in 1 mL of Ham's F12 medium lacking serum and phenol red (Cascade Biologics, Inc-Portland, Oreg.) and promptly placed on ice. A 1 mg/ml stock solution of JC-1 was prepared using sterile DMSO and 10 μL was added to each cell suspension while gently vortexing. […] The samples were analyzed by flow cytometry for changes in uptake of fluorescent dye. […]

[5] = test system: human breast adenocarcinoma cell line (MDA-MB-468); assay: Proliferation of breast adenocarcinoma cell line MDA-MB-468 in in vitro culture; type: cell-based
Method: as §1, §2, §3

squamous carcinoma cells = assay: Proliferation of squamous carcinoma cells in in vitro culture; type: cell-based; settings: 48 hour in vitro culture
Method: as §1, §2, §3

[6] = test system: human osteosarcoma cell line (143B); assay: Proliferation of osteosarcoma cell line 143B in in vitro culture; type: cell-based
Method: as §1, §2, §3

[7] = test system: human neonatal fibroblasts; assay: Proliferation of neonatal fibroblasts in in vitro culture; type: cell-based; settings: 48 hour in vitro culture
Method: as §1, §2, §3

[8] = test system: human melanoma cell line (SKMEL28); assay: Proliferation of melanoma cell line in in vitro culture (cell counting); type: cell-based
Method: as §1, §2, §3

[9] = test system: skin cancer cells (SK-Mel28); assay: Apoptosis assay (Annexin-VPE) in skin cancer cells; type: cell-based, human; settings: culture of skin cancer cells
Method: (§4) Cell lines used in the assay were SK-Mel28 and nFIB. Cells (SK-Mel28 and nFIB) were seeded (5×10^4 cells/well) into wells containing either solely medium or medium with treatment and placed in an incubator at 37° C., 5% CO2, and under humidified conditions for 48 hours. Each condition was performed in duplicate and was subjected to the following protocol:
(§5) Apoptosis Analysis as Per Protocol of BD Pharmingen Annexin-VPE Protocol
(§6) Reagents include Annexin V-PE (BD Pharmingen, San Diego, Calif.), 7-AAD (BD Pharmingen, San Diego, Calif.), binding buffer (10×: 0.1 M Hepes/NaOH, 1.4 M NaCl, 25 mM CaCl2) [diluted to 1× (9 mL PBS and 1 mL binding buffer) for use in experiment] (BD Pharmingen, San Diego, Calif.), Trypsin-EDTA (Gibco, Grand Island, N.Y.), and desired Media.
(§7) Add 0.5 mL trypsin to each well, remove trypsin after approximately 10 seconds, and add 0.5 mL trypsin to each well. Place wells in an incubator, observe level of detachment under microscope after 4 minutes, and gently tap sides and bottom to aid in detachment. When cells detach, neutralize with 0.5 mL serum-supplemented medium. Transfer cell solution to centrifuge tubes, centrifuge cells at 2000 RPM for 5 minutes, aspirate supernatant, resuspend in 6 mL PBS, and split 6 mL into three centrifuge tubes (2 mL each). […]

normal cells (nFIB) = assay: Apoptosis assay (Annexin-VPE) in normal cells; type: cell-based, human; settings: culture of normal cells
Method: as §4, §5, §6, §7

[10] = test system: human breast adenocarcinoma cell line (BT-20); assay: Proliferation of breast adenocarcinoma cell line BT-20 in in vitro culture; type: cell-based
Method: as §1, §2, §3

[11] = test system: human prostatic adenocarcinoma cell line (PC-3); assay: Proliferation of prostatic adenocarcinoma cell line PC-3 in in vitro culture; type: cell-based
Method: as §1, §2, §3

[12] = test system: human hepatocellular carcinoma cell line (Hep 3B); assay: Proliferation of hepatocellular carcinoma cell line Hep 3B in in vitro culture; type: cell-based
Method: as §1, §2, §3

[13] = test system: human breast adenocarcinoma cell line (SK-BR-3); assay: Proliferation of breast adenocarcinoma cell line SK-BR-3 in in vitro culture; type: cell-based
Method: as §1, §2, §3

SK-MEL28 tumors = assay: Effect of topical formulation of Coenzyme Q10 on SK-MEL28 tumors in mice; type: in vivo
Method: Subculture flasks as per the cell subculturing protocol described above. After aspirating supernatant, combine pellets from each flask diluted slightly with PBS with a 5 mL pipette. Dilute final cell suspension to contain approximately ten million cells per 100 μL. Transfer cell suspension to micro-centrifuge tubes (2 mL). Place in ice immediately and leave in ice until injected. Anesthetize mice via an intraperitoneal injection with 0.3 cc Aventin. Inoculate each animal subcutaneously with 0.1 cc cell suspension per site. Transfer any remaining cells into a 15 mL centrifuge tube. Dilute to 10 mL with medium. Centrifuge at 2500 RPM for 8 minutes. Aspirate supernatant. Add 10 mL media to centrifuge tube. Create a homogenous cell suspension by pipetting and vortexing. Seed cells in a T75 flask to ensure experimental cell viability.
Melanoma tumors were induced in mice by SK-MEL28 injection into the subcutaneous layer. The animal study consisted of both a control and treatment group each containing four mice. The mice were inoculated with two tumors and the graph of FIG. 14 represents the resulting mean mass for the tumors in each mouse. A topical formulation of Coenzyme Q10 (A 1.0% and 1.5% formulation was tested) was applied to the tumors in the treatment group daily for a period of 30 days. After which, the tumors were excised and the mass was determined. […]

NC(=O)c1nnn(Cc2cc(Cl)c(C(=O)c3ccc(Cl)cc3)c(Cl)c2)c1N [CAI, carboxyamidotriazole]
disease stabilization [1]: 49%

COC1=C(OC)C(=O)C(C/C=C(\C)CC/C=C(\C)CC/C=C(\C)CC/C=C(\C)CC/C=C(\C)CC/C=C(\C)CC/C=C(\C)CC/C=C(\C)CC/C=C(\C)CCC=C(C)C)=C(C)C1=O [CoQ10, Coenzyme Q10]
proliferation [2]: increases the proliferation
proliferation ([3]; MCF-7, 48 hour in vitro culture): reduces the proliferation
proliferation ([3]; MCF-7, 72 hour in vitro culture): reduces the proliferation
green fluorescence of JC-1 (mitochondrial polarization, an indicator of apoptosis) [4]: significant increase
proliferation ([5]; MDA-MB-468, 48 hour in vitro culture): reduces the proliferation
proliferation ([5]; MDA-MB-468, 72 hour in vitro culture): reduces the proliferation
proliferation (squamous carcinoma cells): reduces the proliferation
proliferation ([6]; 48 hour in vitro culture): reduces the proliferation
proliferation ([6]; 72 hour in vitro culture): reduces the proliferation
proliferation [7]: increases the proliferation
proliferation ([8]; SKMEL28, 36 hour in vitro culture): reduces the proliferation
proliferation ([8]; SKMEL28, 48 hour in vitro culture): reduces the proliferation
rate of apoptosis [9]: increase the rate of apoptosis
rate of apoptosis (normal cells (nFIB)): but not normal cells
proliferation ([10]; BT-20, 48 hour in vitro culture): reduces the proliferation
proliferation ([10]; BT-20, 72 hour in vitro culture): reduces the proliferation
proliferation ([11]; PC-3, 48 hour in vitro culture): reduces the proliferation
proliferation ([11]; PC-3, 72 hour in vitro culture): reduces the proliferation
proliferation ([12]; 48 hour in vitro culture): reduces the proliferation
proliferation ([12]; 72 hour in vitro culture): reduces the proliferation
proliferation ([13]; SK-BR-3, 48 hour in vitro culture): reduces the proliferation
proliferation ([13]; SK-BR-3, 72 hour in vitro culture): reduces the proliferation
Average tumor mass decreased as compared to the control (SK-MEL28 tumors; 1.0% CoQ10 topically for 30 days): 52.3%
Average tumor mass decreased as compared to the control (SK-MEL28 tumors; 1.5% CoQ10 topically for 30 days): 54.0%
